Test results published in paper PMC7206119, “RIP1 inhibition blocks inflammatory diseases but not tumor growth or metastases” (Cell Death and Differentiation, 2019).

Assays:
Assay in all cases: biochemical
Design in all cases: DiscoverX kinase panel, active-site competition binding (KINOMEscan type), percent of control at one concentration
Settings in all cases: competition binding, percent of control
[1] = target: EGFR(L858R,T790M) (Homo sapiens, UniProt P00533, L858R/T790M)
[2] = target: FES (Homo sapiens, UniProt P07332)
[3] = target: T1, VEGFR2 (Homo sapiens, UniProt P35968)
T1 construct: gene KDR

[4] = target: CAMK2A (Homo sapiens, UniProt Q9UQM7)
[5] = target: PLK1 (Homo sapiens, UniProt P53350)
[6] = target: T2, MST1 (Homo sapiens, UniProt Q13043)
T2 construct: gene STK4

[7] = target: T3, RPS6KA5(Kin.Dom.2-C-terminal) (Homo sapiens, UniProt O75582)
T3 construct: Kin.Dom.2-C-terminal

[8] = target: MELK (Homo sapiens, UniProt Q14680)
[9] = target: ABL2 (Homo sapiens, UniProt P42684)
[10] = target: T4, PFCDPK1(P.falciparum) (Plasmodium falciparum, UniProt P62344)
T4 construct: gene CDPK1

[11] = target: T5, ARK5 (Homo sapiens, UniProt O60285)
T5 construct: gene NUAK1

[12] = target: T6, PIK4CB (Homo sapiens, UniProt Q9UBF8)
T6 construct: gene PI4KB

[13] = target: T7, SNARK (Homo sapiens, UniProt Q9H093)
T7 construct: gene NUAK2

[14] = target: AURKA (Homo sapiens, UniProt O14965)
[15] = target: STK35 (Homo sapiens, UniProt Q8TDR2)
[16] = target: T8, PFTK1 (Homo sapiens, UniProt O94921)
T8 construct: gene CDK14

[17] = target: EPHB2 (Homo sapiens, UniProt P29323)
[18] = target: TAOK3 (Homo sapiens, UniProt Q9H2K8)
[19] = target: SRMS (Homo sapiens, UniProt Q9H3Y6)
[20] = target: PIK3CA(C420R) (Homo sapiens, UniProt P42336, C420R)
[21] = target: T9, MEK1 (Homo sapiens, UniProt Q02750)
T9 construct: gene MAP2K1

Sequence of MELK (Q14680 whole entry): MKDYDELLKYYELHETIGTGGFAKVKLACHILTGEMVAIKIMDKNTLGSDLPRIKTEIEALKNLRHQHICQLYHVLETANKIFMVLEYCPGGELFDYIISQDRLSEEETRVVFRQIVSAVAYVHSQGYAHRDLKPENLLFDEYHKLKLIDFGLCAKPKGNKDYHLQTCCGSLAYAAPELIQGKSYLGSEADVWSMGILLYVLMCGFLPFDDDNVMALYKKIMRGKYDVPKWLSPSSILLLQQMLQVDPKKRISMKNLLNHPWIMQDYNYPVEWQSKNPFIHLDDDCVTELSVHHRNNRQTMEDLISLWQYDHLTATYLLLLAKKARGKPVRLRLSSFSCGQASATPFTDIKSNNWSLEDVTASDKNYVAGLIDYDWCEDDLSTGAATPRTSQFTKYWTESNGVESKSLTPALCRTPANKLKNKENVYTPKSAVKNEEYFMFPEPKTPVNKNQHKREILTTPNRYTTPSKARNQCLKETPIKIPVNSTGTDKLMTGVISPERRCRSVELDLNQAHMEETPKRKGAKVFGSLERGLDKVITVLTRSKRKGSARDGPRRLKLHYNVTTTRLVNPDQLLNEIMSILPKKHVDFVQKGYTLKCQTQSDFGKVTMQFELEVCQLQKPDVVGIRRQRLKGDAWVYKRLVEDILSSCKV
T3 sequence (O75582 whole entry): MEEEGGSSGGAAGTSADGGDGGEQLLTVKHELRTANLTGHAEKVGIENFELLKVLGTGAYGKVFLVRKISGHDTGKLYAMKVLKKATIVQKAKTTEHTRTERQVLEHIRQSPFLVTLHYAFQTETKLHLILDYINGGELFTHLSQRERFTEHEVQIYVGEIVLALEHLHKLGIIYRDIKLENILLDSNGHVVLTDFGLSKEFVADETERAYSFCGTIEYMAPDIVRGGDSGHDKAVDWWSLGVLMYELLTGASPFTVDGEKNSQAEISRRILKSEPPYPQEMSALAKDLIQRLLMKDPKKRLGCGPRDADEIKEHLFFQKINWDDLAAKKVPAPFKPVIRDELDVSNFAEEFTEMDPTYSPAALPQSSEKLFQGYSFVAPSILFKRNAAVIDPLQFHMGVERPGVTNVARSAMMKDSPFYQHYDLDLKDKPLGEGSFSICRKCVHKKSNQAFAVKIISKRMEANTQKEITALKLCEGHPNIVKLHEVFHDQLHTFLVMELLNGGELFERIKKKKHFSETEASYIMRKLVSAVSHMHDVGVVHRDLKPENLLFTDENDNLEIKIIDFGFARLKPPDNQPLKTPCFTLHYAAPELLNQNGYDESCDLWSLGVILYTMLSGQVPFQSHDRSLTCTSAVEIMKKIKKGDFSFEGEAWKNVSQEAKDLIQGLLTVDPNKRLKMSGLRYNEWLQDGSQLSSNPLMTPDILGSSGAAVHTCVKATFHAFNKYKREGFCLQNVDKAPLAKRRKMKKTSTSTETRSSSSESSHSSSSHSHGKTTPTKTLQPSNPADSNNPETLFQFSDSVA
T8 sequence (O94921 whole entry): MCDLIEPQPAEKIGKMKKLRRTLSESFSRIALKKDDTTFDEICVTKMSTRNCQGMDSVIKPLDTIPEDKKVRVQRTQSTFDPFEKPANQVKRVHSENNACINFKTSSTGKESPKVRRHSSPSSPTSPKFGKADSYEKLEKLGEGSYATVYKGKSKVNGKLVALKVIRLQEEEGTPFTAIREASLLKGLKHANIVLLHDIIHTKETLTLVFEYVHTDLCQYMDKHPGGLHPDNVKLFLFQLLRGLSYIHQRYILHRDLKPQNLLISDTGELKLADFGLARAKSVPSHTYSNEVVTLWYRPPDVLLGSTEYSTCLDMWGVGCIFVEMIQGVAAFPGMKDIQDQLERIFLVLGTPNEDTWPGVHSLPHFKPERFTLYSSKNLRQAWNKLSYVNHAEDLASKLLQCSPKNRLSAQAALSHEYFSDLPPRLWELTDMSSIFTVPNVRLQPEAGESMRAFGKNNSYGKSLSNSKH
T2 sequence (Q13043 whole entry): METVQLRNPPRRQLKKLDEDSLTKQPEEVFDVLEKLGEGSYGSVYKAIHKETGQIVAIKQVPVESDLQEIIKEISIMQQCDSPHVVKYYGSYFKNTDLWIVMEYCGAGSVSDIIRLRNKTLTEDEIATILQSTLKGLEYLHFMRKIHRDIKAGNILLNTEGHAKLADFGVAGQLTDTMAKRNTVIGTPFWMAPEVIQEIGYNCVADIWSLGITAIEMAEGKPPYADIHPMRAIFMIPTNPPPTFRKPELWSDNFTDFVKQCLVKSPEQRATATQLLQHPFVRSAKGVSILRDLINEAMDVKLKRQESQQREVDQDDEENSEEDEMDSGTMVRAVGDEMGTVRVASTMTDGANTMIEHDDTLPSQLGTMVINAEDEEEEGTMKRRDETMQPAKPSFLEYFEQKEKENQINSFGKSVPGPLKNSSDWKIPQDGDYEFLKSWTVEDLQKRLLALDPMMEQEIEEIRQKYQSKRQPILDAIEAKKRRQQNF
Sequence of EGFR(L858R,T790M) (P00533 whole entry T790M/L858R): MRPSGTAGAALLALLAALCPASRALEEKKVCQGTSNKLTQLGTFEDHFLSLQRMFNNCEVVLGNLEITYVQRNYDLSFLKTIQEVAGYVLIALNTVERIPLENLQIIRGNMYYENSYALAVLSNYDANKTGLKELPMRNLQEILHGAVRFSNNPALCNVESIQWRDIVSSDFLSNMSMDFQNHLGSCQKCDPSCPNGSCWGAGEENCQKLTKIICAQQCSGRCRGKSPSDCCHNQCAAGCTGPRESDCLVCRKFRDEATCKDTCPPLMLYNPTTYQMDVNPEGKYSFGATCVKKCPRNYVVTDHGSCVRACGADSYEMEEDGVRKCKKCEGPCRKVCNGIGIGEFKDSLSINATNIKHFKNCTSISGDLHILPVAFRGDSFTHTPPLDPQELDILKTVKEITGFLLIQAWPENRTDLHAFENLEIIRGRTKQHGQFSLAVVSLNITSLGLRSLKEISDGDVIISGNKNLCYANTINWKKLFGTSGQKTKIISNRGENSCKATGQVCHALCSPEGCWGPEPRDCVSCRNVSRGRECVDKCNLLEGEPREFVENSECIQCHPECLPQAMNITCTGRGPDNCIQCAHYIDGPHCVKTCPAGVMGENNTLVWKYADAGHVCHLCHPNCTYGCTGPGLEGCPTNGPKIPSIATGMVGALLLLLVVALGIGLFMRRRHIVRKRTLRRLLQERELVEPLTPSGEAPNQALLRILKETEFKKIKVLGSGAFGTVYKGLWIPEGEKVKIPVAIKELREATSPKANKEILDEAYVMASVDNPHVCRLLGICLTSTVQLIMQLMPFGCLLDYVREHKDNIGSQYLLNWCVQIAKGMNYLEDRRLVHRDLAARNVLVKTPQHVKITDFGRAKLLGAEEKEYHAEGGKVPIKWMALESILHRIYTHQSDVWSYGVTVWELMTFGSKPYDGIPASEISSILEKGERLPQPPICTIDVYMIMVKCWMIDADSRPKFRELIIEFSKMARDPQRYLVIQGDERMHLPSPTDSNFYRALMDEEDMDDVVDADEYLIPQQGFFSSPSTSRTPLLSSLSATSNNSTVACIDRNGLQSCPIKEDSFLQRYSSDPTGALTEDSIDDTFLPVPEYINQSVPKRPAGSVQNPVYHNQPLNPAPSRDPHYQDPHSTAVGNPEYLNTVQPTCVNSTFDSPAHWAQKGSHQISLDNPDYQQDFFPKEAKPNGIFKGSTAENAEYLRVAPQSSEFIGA
Sequence of ABL2 (P42684 whole entry): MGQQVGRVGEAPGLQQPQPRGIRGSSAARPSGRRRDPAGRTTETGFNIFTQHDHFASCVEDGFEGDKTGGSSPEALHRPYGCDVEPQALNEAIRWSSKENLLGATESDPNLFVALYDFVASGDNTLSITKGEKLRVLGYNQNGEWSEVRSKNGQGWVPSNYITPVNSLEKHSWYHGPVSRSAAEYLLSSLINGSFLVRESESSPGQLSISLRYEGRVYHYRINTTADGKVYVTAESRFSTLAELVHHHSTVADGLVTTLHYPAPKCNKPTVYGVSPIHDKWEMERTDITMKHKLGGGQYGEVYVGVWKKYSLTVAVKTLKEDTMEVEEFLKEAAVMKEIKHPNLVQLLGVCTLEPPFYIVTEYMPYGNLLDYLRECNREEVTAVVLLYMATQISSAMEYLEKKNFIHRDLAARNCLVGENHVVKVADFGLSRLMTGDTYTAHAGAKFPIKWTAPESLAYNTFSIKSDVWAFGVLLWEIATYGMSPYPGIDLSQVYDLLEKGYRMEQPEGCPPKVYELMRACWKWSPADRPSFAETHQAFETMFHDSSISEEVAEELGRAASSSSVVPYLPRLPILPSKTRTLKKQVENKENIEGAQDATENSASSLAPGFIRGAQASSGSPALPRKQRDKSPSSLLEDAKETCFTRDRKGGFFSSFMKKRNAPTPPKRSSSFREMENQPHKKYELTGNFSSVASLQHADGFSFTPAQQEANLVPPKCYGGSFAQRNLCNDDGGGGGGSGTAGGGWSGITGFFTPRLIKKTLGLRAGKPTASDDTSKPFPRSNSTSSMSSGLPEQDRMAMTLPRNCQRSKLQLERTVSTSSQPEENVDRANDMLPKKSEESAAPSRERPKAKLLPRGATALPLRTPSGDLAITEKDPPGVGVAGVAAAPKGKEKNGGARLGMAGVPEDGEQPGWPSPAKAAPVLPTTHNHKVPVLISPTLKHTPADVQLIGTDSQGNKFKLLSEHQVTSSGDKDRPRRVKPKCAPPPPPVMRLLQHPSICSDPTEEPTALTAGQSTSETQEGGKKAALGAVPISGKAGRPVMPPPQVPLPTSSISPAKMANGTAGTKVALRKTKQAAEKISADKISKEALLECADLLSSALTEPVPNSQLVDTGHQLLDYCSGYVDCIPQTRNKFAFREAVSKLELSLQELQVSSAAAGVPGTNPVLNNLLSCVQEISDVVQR

## COc1cc2c(cn1)N(C)C(=O)[C@@H](NC(=O)c1nc3n(n1)[C@H](c1ccccc1)CC3)CC2 [GNE684, (S)-N-((S)-7-methoxy-1-methyl-2-oxo-2,3,4,5-tetrahydro-1H-pyrido[3,4-b]azepin-3-yl)-5-phenyl-6,7-dihydro-5H-pyrrolo[1,2-b][1,2,4]triazole-2-carboxamide]
[1]
  remaining binding at 10 µM: 100%
[2]
  remaining binding at 10 µM: 100%
[3]
  remaining binding at 10 µM: 93%
[4]
  remaining binding at 10 µM: 69%
[5]
  remaining binding at 10 µM: 79%
[6]
  remaining binding at 10 µM: 85%
[7]
  remaining binding at 10 µM: 100%
[8]
  remaining binding at 10 µM: 93%
[9]
  remaining binding at 10 µM: 100%
[10]
  remaining binding at 10 µM: 100%
[11]
  remaining binding at 10 µM: 94%
[12]
  remaining binding at 10 µM: 98%
[13]
  remaining binding at 10 µM: 100%
[14]
  remaining binding at 10 µM: 96%
[15]
  remaining binding at 10 µM: 100%
[16]
  remaining binding at 10 µM: 79%
[17]
  remaining binding at 10 µM: 82%
[18]
  remaining binding at 10 µM: 60%
[19]
  remaining binding at 10 µM: 100%
[20]
  remaining binding at 10 µM: 100%
[21]
  remaining binding at 10 µM: 91%
